Literature values, collected in patent US20150086616A1, “METHOD FOR THE PREVENTION AND TREATMENT OF ALZHEIMER'S DISEASE” (priority 2013, published 2015).

Experiments:
[1] = highly lipophilic drugs
[2] = after multiple oral doses of ibuprofen
Alzheimer's disease = conditions: for efficacy of oral NSAID as treatment of Alzheimer's disease: oral administration
[3] = ophthalmic

SMILES	direct cyclooxygenase inhibition (cyclooxygenase)	crossing of the blood brain barrier [1]	efficacy of oral NSAID as treatment of Alzheimer's disease (Alzheimer's disease)	other results
C[C@H](C(=O)O)c1ccc(-c2ccccc2)c(F)c1 (single isomer, unassigned) [S-enantiomer of flurbiprofen]	is a cyclooxygenase inhibitor			
CC(C)Cc1ccc(C(C)C(=O)O)cc1 (stereo not drawn) [ibuprofen]		readily cross the blood brain barrier	not an effective treatment	brain concentration [2]: 0.4 µg/g; concentration in fat [2]: 58.4 μg/g tissue
CC(C(=O)O)c1ccc(-c2ccccc2)c(F)c1 (stereo not drawn) [flurbiprofen]		readily cross the blood brain barrier	not an effective treatment	
C[C@@H](C(=O)O)c1ccc(-c2ccccc2)c(F)c1 [R-flurbiprofen]	devoid of any direct cyclooxygenase inhibition			phase III clinical trial for the treatment of Alzheimer's disease (Alzheimer's disease; phase III clinical trial): failed
O=C(O)Cc1ccccc1Nc1c(Cl)cccc1Cl [diclofenac]		readily cross the blood brain barrier		anti-inflammatory action compared with flurbiprofen [3]: more anti-inflammatory action; burning sensation compared with flurbiprofen [3]: less burning sensation
